Test system: dry eye patient
Assay: Peroral administration to a dry eye patient
Assay type: in vivo, human
Settings: perorally administered to a dry eye patient; no method or data given

hyaluronic acid
eye condition improving effect: any significant eye condition improving can not be attained
